Assay results taken from ChEMBL document CHEMBL6071140, “Ocotillol Derivatives Mitigate Retinal Ischemia-Reperfusion Injury by Regulating the Keap1/Nrf2/ARE Signaling Pathway” (J Med Chem, 2024).
The source made the active and inactive calls. No cut-off for these calls is given here.

Assays:
[1] = (§1) Upregulation of Nrf2 protein expression in OGD stimulated rat R28 cells by Western blotting analysis; format: functional
[2] = (§2) Antiinflammatory activity against LPS-stimulated mouse BMDM assessed as fold decrease in TNFalpha expression at 1.25 uM preincubated for 2 hrs followed by LPS addition for 22 hrs by ELISA; format: functional; details: time 24 hrs
[3] = Inhibition of OGD stimulated ROS accumulation in rat R28 cells assessed as fold decrease in ROS level at 1.25 uM preincubated for 24 hrs followed by OGD stimulation by DCFH-DA staining based confocal laser scanning microscopy; format: functional
[4] = Cytotoxicity against rat R28 cells assessed as decrease in cellular ATP content incubated for 24 hrs by CellTiter-Lumi Plus cell viability assay; format: toxicity, cell-based; details: r28, 24 h
[5] = system: BMDM; experiment: Antiinflammatory activity against LPS-stimulated mouse BMDM assessed as reduction in NO production at 1.25 uM preincubated for 2 hrs followed by LPS addition for 22 hrs by Griess reagent based assay; format: functional, cell-based; details: time 24.0 hrs
[6] = system: R28; experiment: Antioxidant activity in rat R28 cells assessed as protection against OGD induced cytotoxicity by measuring cellular ATP level preincubated under OGD condition for 8 hrs followed by reoxygenation for 4 hrs by CellTiter-Lumi Plus cell viability assay; format: functional, cell-based; details: dose 0.1-40 µM, time 12.0 hrs
[7] = (§3) Upregulation of HO-1 protein expression in OGD stimulated rat R28 cells by Western blotting analysis; format: functional
[8] = (§4) Antiinflammatory activity against LPS-stimulated mouse BMDM assessed as induction of polarization toward M2 phenotype at 1.25 uM preincubated for 2 hrs followed by LPS addition for 22 hrs by DAPI staining based confocal laser scanning microscopy; format: functional; details: time 24 hrs
[9] = system: R28; experiment: Antioxidant activity in rat R28 cells assessed as protection against OGD induced cytotoxicity by measuring cellular ATP level at 0.1 to 40 uM preincubated under OGD condition for 8 hrs followed by reoxygenation for 4 hrs by CellTiter-Lumi Plus cell viability assay; format: functional, cell-based; details: dose 0.1-40 µM, time 12.0 hrs
[10] = biological target: Kelch-like ECH-associated protein 1 (Homo sapiens) (UniProt Q14145); experiment: Binding affinity to Keap1 (unknown origin) incubated for 15 mins by MST assay; details: filed as activator
Chain of Kelch-like ECH-associated protein 1 (Homo sapiens) (Q14145 whole entry): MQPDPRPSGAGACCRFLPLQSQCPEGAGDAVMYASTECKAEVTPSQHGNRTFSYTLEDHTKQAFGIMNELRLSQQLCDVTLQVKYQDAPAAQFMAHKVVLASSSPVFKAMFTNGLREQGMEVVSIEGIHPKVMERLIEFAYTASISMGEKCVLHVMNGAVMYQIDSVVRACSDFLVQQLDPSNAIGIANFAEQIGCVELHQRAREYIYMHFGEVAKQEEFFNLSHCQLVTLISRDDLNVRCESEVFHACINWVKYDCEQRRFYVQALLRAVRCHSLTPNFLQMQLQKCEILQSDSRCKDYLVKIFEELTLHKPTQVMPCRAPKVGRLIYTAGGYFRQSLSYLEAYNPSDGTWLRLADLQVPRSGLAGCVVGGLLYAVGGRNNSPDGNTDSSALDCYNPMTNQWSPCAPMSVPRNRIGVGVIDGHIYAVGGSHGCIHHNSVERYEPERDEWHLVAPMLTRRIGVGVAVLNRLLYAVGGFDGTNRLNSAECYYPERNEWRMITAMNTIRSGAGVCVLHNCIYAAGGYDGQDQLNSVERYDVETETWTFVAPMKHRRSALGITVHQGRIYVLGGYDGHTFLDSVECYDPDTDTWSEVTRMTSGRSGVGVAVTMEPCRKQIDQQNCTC

[11] = system: BMDM; experiment: Antiinflammatory activity against LPS-stimulated mouse BMDM assessed as reduction in IL6 expression at 1.25 uM preincubated for 2 hrs followed by LPS addition for 22 hrs by ELISA; format: functional, cell-based; details: time 24.0 hrs
[12] = system: Macrophage; experiment: Antiinflammatory activity against LPS-stimulated mouse macrophages assessed as reduction in NO production at 0.1 to 40 uM preincubated for 2 hrs followed by LPS addition for 22 hrs by Griess reagent based assay; format: functional, cell-based; details: dose 0.1-40 µM, time 24.0 hrs
[13] = system: R28; experiment: Induction of Nrf2 translocation from cytosol to nucleus in OGD stimulated rat R28 cells; format: functional, cell-based
[14] = (§5) Upregulation of NQO1 protein expression in OGD stimulated rat R28 cells by Western blotting analysis; format: functional
[15] = system: R28; experiment: as §1; format: functional
[16] = system: BMDM; experiment: as §2; format: functional; details: time 24.0 hrs
[17] = system: R28; experiment: as §3; format: functional
[18] = system: BMDM; experiment: as §4; format: functional; details: time 24.0 hrs
[19] = system: R28; experiment: as §5; format: functional

## CN(CC(=O)O)CC(=O)Nc1nc2c(s1)C[C@]1(C)[C@H]3C[C@@H](O)[C@@H]4[C@@H]([C@]5(C)CC[C@@H](C(C)(C)O)O5)CC[C@@]4(C)[C@]3(C)CC[C@H]1C2(C)C
[1]
  Activity: 96.59%
[2]
  fold change (FC): 48.3
[3]
  fold change (FC): 1.16
[4]
  Activity: Non-Toxic
[5]
  Activity: Active
[6]
  Activity: Dose-Dependent Effect
[7]
  Activity: 77.93%
[8]
  Activity: 100%
[9]
  Activity: Active
[10]
  Activity: Dose-Dependent Effect
[11]
  Activity: Active
[12]
  Activity: Active
[13]
  Activity: Active
[14]
  Activity: 85.54%

## CN(CC(=O)O)CC(=O)Nc1nc2c(s1)C[C@]1(C)[C@H]3C[C@@H](O)[C@@H]4[C@@H]([C@]5(C)CC[C@H](C(C)(C)O)O5)CC[C@@]4(C)[C@]3(C)CC[C@H]1C2(C)C
[15]
  Activity: inactive
[16]
  Activity: inactive
[3]
  fold change (FC): 1.31
[4]
  Activity: Non-Toxic
[5]
  Activity: Active
[6]
  Activity: Dose-Dependent Effect
[17]
  Activity: inactive
[18]
  Activity: Active
[9]
  Activity: Active
[10]
  Activity: Dose-Dependent Effect
[11]
  Activity: Active
[12]
  Activity: Active
[19]
  Activity: inactive
